The subject of assay [1] is neutrophil-like differentiated HL-60 cells. In words: binding of biotinylated peptides to cell surfaces (streptavidin-Alexa488 fluorescence microscopy). The arrangement: species or system human. To be noted: peptide 10 μM, 37° C., 30 minutes. As for the experimental part:
(§1) Thus, it was confirmed that the synthesized functional peptide derivatives had the activities. Therefore, subsequently, in order to identify the binding sites of the functional peptides in the cells, these peptides (final concentration 10 μM) were incubated with the neutrophil-like differentiated HL-60 cells or undifferentiated HL-60 cells prepared in Example 3-(3) at 37° C. for 30 minutes. After that, the obtained cell suspension was centrifuged (1,000 rpm, 5 minutes, 4° C.) and the supernatant was removed. Further, HBHS was added and the mixture was centrifuged to wash the cells. Then, the cells were resuspended in HBHS. A streptavidin-HBHS labeled with a fluorescence, Alexa488 (Molecular probe, Invitrogen Corporation.) was added thereto, and the mixture was centrifuged, and the supernatant was removed. Further, the following operation was repeated three times to wash the cells: HBHS was added and the mixture was centrifuged.

In assay [2] the target is T1, heat shock 70 kDa protein 8 isoform 1 (SEQ ID NO: 52) (Homo sapiens, UniProt P11142).
T1 construct: endogenous in cells; host or cells: neutrophil-like differentiated HL-60 cells
T1 sequence (P11142 whole entry, canonical isoform): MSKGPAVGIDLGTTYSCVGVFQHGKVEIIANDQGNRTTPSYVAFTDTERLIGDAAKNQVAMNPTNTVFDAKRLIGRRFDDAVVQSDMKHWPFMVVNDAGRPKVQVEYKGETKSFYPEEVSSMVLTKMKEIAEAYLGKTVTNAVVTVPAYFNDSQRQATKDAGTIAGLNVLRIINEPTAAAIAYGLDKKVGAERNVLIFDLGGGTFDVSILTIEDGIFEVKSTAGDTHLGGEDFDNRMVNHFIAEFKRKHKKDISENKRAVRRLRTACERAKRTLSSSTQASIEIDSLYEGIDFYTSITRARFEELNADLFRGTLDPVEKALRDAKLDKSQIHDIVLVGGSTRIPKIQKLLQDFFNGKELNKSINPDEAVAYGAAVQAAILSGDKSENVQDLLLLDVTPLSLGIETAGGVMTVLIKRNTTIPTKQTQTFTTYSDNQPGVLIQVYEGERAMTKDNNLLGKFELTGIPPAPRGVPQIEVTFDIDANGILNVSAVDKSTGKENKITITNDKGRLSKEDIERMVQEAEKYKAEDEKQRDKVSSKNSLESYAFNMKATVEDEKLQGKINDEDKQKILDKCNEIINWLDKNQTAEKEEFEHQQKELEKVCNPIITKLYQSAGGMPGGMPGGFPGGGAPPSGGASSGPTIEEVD
In words: chemical crosslinking experiment, streptavidin beads, electrophoresis (receptor identification). In kind it is binding. To be noted: peptide 10 μM; for bands of specifically binding proteins in SDS gel electrophoresis: differentiated HL-60 cell lysate, silver stain. As for the experimental part: Then, in order to identify directly the receptor molecules to which these functional peptides are bound, the following chemical crosslinking experiment was performed. That is, the HL-60 cells differentiated into the neutrophil-like cells were suspended in HBHS (not containing 0.1% BSA). The suspension was centrifuged (1,000 rpm, 5 minutes, 4° C.) and the supernatant was removed. The cells were suspended again in the HBHS not containing BSA so as to have the cell density of 5.6×10^6 cells/ml. The obtained cell suspension was preincubated at 37° C. for 10 minutes at first, and 1/10 volume of mitocryptide-3 and -5, [Cys^0]mitocryptide-3, [Cys^0]mitocryptide-5, [Cys^24]mitocryptide-3, and peptides obtained by introducing biotin into the N terminals thereof (N-biotinyl-mitocryptide-3, N-biotinyl-mitocryptide-5, N-biotinyl-[Cys^0]mitocryptide-3, N-biotinyl-[Cys^0]mitocryptide-5, and N-biotinyl-[Cys^24]mitocryptide-3) were added to have the final concentration of 10 μM, followed by incubation at 37° C. for 30 minutes. After that, the cell suspension was centrifuged (5,000 rpm, 4° C., 1 minute) and the supernatant was removed. The resultant cells were resuspended in HBHS not containing BSA and centrifuged again to wash the cells. 1 ml of a buffer for dissolving cells (100 mM NaCl, 20 mM Tris-HCl, 1 mM EDTA, 77.5 mTIU/ml aprotinin, 1 μM leupeptin, 1 μg/ml pepstatin A, 1 μg/ml phosphoramidone, 1% CHAPS, pH 7.5) with respect to 1 ml of the original cell suspension was added to the cell precipitate, and the mixture was incubated at 4° C. for 30 minutes to dissolve the cells, thereby a cell lysate was prepared. The cell lysate was centrifuged (15,000 rpm, 4° C., 15 minutes) and the supernatant was centrifuged again in the same condition. The obtained supernatant was incubated with streptavidin beads at 4° C. for 30 minutes, then, the beads were washed by centrifugation with the buffer for dissolving cells three times. Further, the beads were treated by heat at 100° C. for 10 minutes in the buffer for dissolving cells, and the mixture was centrifuged. The obtained supernatant was subjected to an SDS gel electrophoresis to separate the contained protein. Then, the gel was stained by silver stain method, thereby the proteins were analyzed. […] As a result, two specific spots were detected (FIG. 15-A). Therefore, the protein was extracted and degraded with trypsin, and then, the degraded proteins were analyzed by mass spectrometry.

In assay [3] the test system is HL-60 cells differentiated into the neutrophil-like cells. In words: β-hexosaminidase-secreting activity of neutrophil-like differentiated HL-60 cells. In kind it is cell-based, human. To be noted: differentiated HL-60 cells; read-out: EC50, β-hexosaminidase-secreting activity. An outline of the steps:
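HL-60 cells were differentiated with 500 μM db-cAMP for 3 days at 37 °C, then stimulated with peptide for 10 min in HBHS/0.1% BSA, pH 7.4, containing 5 μg/ml cytochalasin B and DNase I. Released β-hexosaminidase was read at 405 nm after p-nitrophenyl-N-acetylglucosaminide hydrolysis (pH 4.5, 37 °C, 1 h). Secretion is expressed relative to 10 μM fMLP, with total enzyme from 0.05% Triton X-100 lysis.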

Assay [4] deals with differentiated HL-60 cells. In words: migration activity (Chemotaxis Index) of differentiated HL-60 cells. In kind it is cell-based, human. As for the experimental part:
(3) Measurement of Migration Activity
The cells were collected by centrifuging the suspension of the differentiated HL-60 cells (1,000 rpm, 5 minutes, 4° C.). After that, the following operation was repeated three times to wash the cells: 10% FBS-RPMI1640 was added to the cells; the mixture was suspended by inversion; and the mixture was centrifuged again (1,000 rpm, 5 minutes, 4° C.). Then, a medium (10% FBS-RPMI1640) was added so that a cell density was 4×10^6 cells/ml, thereby a cell suspension was prepared. Subsequently, 1 ml of each peptide solution (dissolved in 10% FBS-RPMI 1640) was transferred to each well of a 24-well plate, and the plate was incubated at 37° C. for 20 minutes. After that, 500 μl of the cell suspension (2×10^6 cells) were put in Chemotaxicell (KURABO […] LTD., 3 μm) and the Chemotaxicell was set in a plate, followed by incubation in the presence of 5% CO2 at 37° C. for 1 hour. Then, the Chemotaxicell was removed and the solution in each well of the plate was pipetted. The cells migrated to the plate side was suspended well and the number of the cells were measured. Note that the migration activity by the peptide was represented by a ratio of the number of the cells to the number of the cells passing the Chemotaxicell at the time of non-stimulation (Chemotaxis Index, CI).

In assay [5] the test system is G protein in the differentiated HL-60 cell membrane fraction. In words: G protein activation ability (GTP hydrolysis) in cell membrane fraction. In kind it is biochemical, human. As for the experimental part:
(4) Measurement of G Protein Activation Ability
The cells were collected by centrifuging the suspension of the differentiated HL-60 cells (1,000 rpm, 5 minutes, 4° C.). After that, the following operation was repeated three times to wash the cells: ice-cooled PBS was added to the cells; the mixture was suspended by inversion; and the mixture was centrifuged (1,000 rpm, 5 minutes, 4° C.). Then, the precipitated cells were suspended in a buffer for preparing a cell membrane fraction (20 mM Tris-HCl, 250 mM sucrose, 1.5 mM MgCl2, 3 mM benzamidine hydrochloride monohydrate, 1 μM leupeptin, 1 μM PMSF, 2 μg/ml trypsin inhibitor, pH 7.5) and a cell homogenate was prepared using nitrogen pressing-depressing type cell homogenizing apparatus (nitrogen pressure: 350 psi). After that, the resultant was ultracentrifuged (20,000 g, 4° C., 30 minutes) to remove the supernatant, and the precipitate was suspended in a membrane fraction buffer (20 mM Tris-HCl, 1 mM EDTA, 1 mM DTT, 77.5 mTIU/ml aprotinin, pH 7.5) and used as a cell membrane fraction. After dispensed, the cell membrane fraction was stored at −80° C. The activity of the G protein was quantified using the activity to hydrolyze GTP to GDP as an index. […] The mixture was centrifuged (15,000 rpm, 1 minute, 4° C.), and the radioactivity of the supernatant was measured.

A further assay has as its target T2, bovine Gi1-G protein (Bos taurus, UniProt P63097).
T2 construct: made in house; host or cells: E. coli
The assay is described as follows: G protein activation ability (GTP hydrolysis) with purified Gi1. Format: biochemical.

For assay [6], the system named is undifferentiated HL-60 cells. In words: binding of biotinylated peptides to cell surfaces (streptavidin-Alexa488 fluorescence microscopy). The arrangement: species or system human. To be noted: peptide 10 μM, 37° C., 30 minutes. As for the experimental part: as §1

Where no end group is shown, it is not given here. The star is where a group is joined. Biotin = O=C1N[C@H]2[C@H](CS[C@H]2CCCCC(=O)*)N1

As a reminder, the EC50 is the concentration needed to bring the measured effect to its halfway point.

T2 sequence (P63097 whole entry): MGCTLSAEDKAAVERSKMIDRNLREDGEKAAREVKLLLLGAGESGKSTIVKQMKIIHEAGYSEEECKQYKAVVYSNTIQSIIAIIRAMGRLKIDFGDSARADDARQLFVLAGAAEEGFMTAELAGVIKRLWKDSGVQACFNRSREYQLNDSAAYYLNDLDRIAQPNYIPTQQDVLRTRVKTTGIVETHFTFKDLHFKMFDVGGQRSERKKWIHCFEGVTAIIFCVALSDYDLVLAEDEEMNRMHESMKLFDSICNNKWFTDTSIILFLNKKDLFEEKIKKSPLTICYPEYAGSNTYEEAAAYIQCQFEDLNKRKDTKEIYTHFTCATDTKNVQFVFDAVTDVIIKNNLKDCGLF

Regarding “N-biotinyl-[Cys^0]mitocryptide-5: [Cys^0]mitocryptide-5 with biotin introduced into the N terminal (Biotin-CMFPLVKSALNRLQVRSIQQTMARQ)”, the “binding to cell surfaces” value in assay [1] is “bound to the surfaces of the cells specifically”. Also, in assay [2] (differentiated HL-60 cells), the “binding of heat shock 70 kDa protein 8 isoform 1 to the peptide” value is on record as “bound”.
As for MFPLVKSALNRLQVRSIQQTMARQ [No. 015], the concentration giving a half-maximal response (EC50) in assay [3] worked out at 380 nM. Moreover, in assay [4], the “concentration of migration activity compared with that of β-hexosaminidase-secreting activity” value is reported as “confirmed at the almost same concentration” and the “desensitization of migration activity with increasing concentration of the peptide” value was “subjected to desensitization completely”. For the same substance, the “activation of G protein” value in assay [5] is given as “activated”. Also, on bovine Gi1-G protein, the “activation of purified Gi1 protein” value is “activated”.
“N-biotinyl-[Cys^0]mitocryptide-3: [Cys^0]mitocryptide-3 with biotin introduced into the N terminal (Biotin-CMLWNLLALHQIGQRTISTASHRH)”: the “binding to cell surfaces” value is “bound to the surfaces of the neutrophil-like differentiated HL-60 cells specifically” in assay [1] and “less bound to the surfaces of the undifferentiated HL-60 cells” in assay [6]. For the same substance, the “bands of specifically binding proteins in SDS gel electrophoresis” value in assay [2] is recorded as “five bands indicating specific binding”.
In the case of “N-biotinyl-[Cys^24]mitocryptide-3: [Cys^24]mitocryptide-3 with biotin introduced into the N terminal (Biotin-MLWNLLALHQIGQRTISTASHRHC)”, the “bands of specifically binding proteins in SDS gel electrophoresis” value in assay [2] is listed as “five bands indicating specific binding”.
On to “N-biotinyl-Cys-Gln-Leu-Trp-Ala-Val-Gly-Ser-Phe-Met-NH2 (Biotin-CQLWAVGSFM-NH2; SMILES CSCC[C@H](NC(=O)[C@H](Cc1ccccc1)NC(=O)[C@H](CO)NC(=O)CNC(=O)[C@@H](NC(=O)[C@H](C)NC(=O)[C@H](Cc1c[nH]c2ccccc12)NC(=O)[C@H](CC(C)C)NC(=O)[C@H](CCC(N)=O)NC(=O)[C@H](CS)NC(=O)CCCC[C@@H]1SC[C@@H]2NC(=O)N[C@@H]21)C(C)C)C(N)=O) [reference compound]”, for which the “binding to cell surfaces” value in assay [1] was “no binding was confirmed at all”.

The record behind these values is patent US7893199B2, “Peptides having neutrophil-stimulating activity” (National University Corporation Gunma University, priority 2006, dated 2011).
